Columns and labels:
[1] = solubility of 3-HKG in water; type: physicochemical; conditions: amount of 0.1 mg/mL (as in WO2008/077712)
[2] = tested on: functional retinal status; assay: functional retinal status (FERG, mfERG) in subjects with age-related maculopathy, 6 months of eye drops; type: in vivo, human; conditions: for amplitudes found with the FERG / mfERG: after 6 months treatment vs before; for SCORE AFTER 6 MONTHS OF TREATMENT (ARBITRARY SCALE): three times a day for 6 months, 0 = no variation respect to time zero, −10 = worsening of the symptoms
Description: In order to evaluate the protective effect of the eye drops being examined on the internal structures of the eye in subjects suffering from age-related maculopathy, the following experimental procedure was carried out. 24 Subjects between 49 and 74 years of age, irrespective of gender, received for 6 months the eye drops of Example 1 (complete composition) three times a day. Subjects were subdivided into 4 equal groups and treated as reported in the following: The functional retinal status of the patients was evaluated using the focal electroretinogram (FERG) and the multifocal electroretinogram (mfERG) methods, before and after 6 months treatment. These two methods are useful for evaluating the electrical activity of the 30° retinal centres (Invest. Ophthalmol. Vis. Sci., 1986; 27: 1123-1130; Eye, 2005; 19:431-441).

[3] = tested on: corneal epithelium; assay: protective effect on the corneal epithelium against UV A/B radiation in rabbits (morphology, TUNEL); type: in vivo, rabbit; conditions: for damage to the DNA (TUNEL) / corneal tissue morphology (hematoxylin-eosin): treated left eye after UV exposure; for corneal tissue morphology (hematoxylin-eosin): compared with untreated animals; for EYE LEFT Score (arbitrary scale): treated left eye, instilled every 2 hours for eight hours, then 2091 seconds of UV 290/360 nm, Negative Control = 10, UV-exposed untreated right eye = 1
Description: In all the groups treated (groups 1-4) the right eye acted as a positive control. The following compositions were instilled respectively into the left eye every 2 hours for eight hours:
Then the animals were exposed for 2091 seconds to UV radiation using a xenon-mercury lamp, 5000 W, 290/360 nm, (Photochem. Photobiol. 1989; 49:175-180) after which the animals were killed and the eyeballs removed and placed in a fixative (4% paraformaldehyde). The cornea was then removed, included in paraffin and then evaluated for its morphological aspects and the cellular degeneration. The morphology was examined by means of hematoxylin-eosin staining whereas the cellular parameters were examined with vital exclusion stains and the TUNEL technique (analysis of DNA fragmentation, by means of terminal transferase, as a consequence of cellular stress) (Arch. Ophthalmol. 1987; 115:1031-1035).

Row | Compound | solubility in water [1] | amplitudes found with the FERG [2] | mfERG [2] | SCORE AFTER 6 MONTHS OF TREATMENT (ARBITRARY SCALE) [2] [arbitrary scale] | damage to the DNA (TUNEL) [3] | corneal tissue morphology (hematoxylin-eosin) [3] | EYE LEFT Score (arbitrary scale) [3] [arbitrary scale]
1 | Nc1c(O[C@@H]2O[C@H](CO)[C@@H](O)[C@H](O)[C@H]2O)cccc1C(=O)CC(N)C(=O)O (mixture of isomers) [Group 3, 3-Hydroxykynurenine O-β-DL-glucoside] | not (completely) soluble in water | substantial stability | significant worsening | −4 | no damage to the DNA was seen | tissue appeared damaged although this was not very apparent | 4
2 | C[N+](C)(C)C[C@H](O)CC(=O)[O-] [Group 2, L-carnitine] | – | reduction | significant worsening | −6 | no damage to the DNA was seen | tissue appeared damaged | 3
